Assay results published in the supplement of paper PMC10307832.

Tests used:
Experiment in all cases: relative viability (nuclei count vs DMSO), 5 days (fraction); higher = more cells survive
Vismodegib + Linsitinib = compound: CS(=O)(=O)c1ccc(C(=O)Nc2ccc(Cl)c(-c3ccccn3)c2)c(Cl)c1 [Vismodegib] + C[C@]1(O)C[C@@H](c2nc(-c3ccc4ccc(-c5ccccc5)nc4c3)c3c(N)nccn32)C1 [Linsitinib] (partner 1 µM)
Summary of the method: (§1)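 Lung cancer cell lines were pin-tool dosed in 1536-well plates on the day after seeding, with either a lone drug or a fixed anchor-drug dose plus five library-drug doses (not always all listed) in √10 steps. Nuclei were counted on 4× images after 5 days. Relative viability is the ratio of treated-well to vehicle-well nuclei counts, with each value a median of duplicate plates.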

Ruxolitinib + Lapatinib = compound: N#CC[C@H](C1CCCC1)n1cc(-c2ncnc3[nH]ccc23)cn1 [Ruxolitinib] + CS(=O)(=O)CCNCc1ccc(-c2ccc3ncnc(Nc4ccc(OCc5cccc(F)c5)c(Cl)c4)c3c2)o1 [Lapatinib] (partner 2 µM)
Summary of the method: as §1

Ruxolitinib + Bortezomib = compound: N#CC[C@H](C1CCCC1)n1cc(-c2ncnc3[nH]ccc23)cn1 [Ruxolitinib] + CC(C)C[C@H](NC(=O)[C@H](Cc1ccccc1)NC(=O)c1cnccn1)B(O)O [Bortezomib] (partner 0.002 µM)
Summary of the method: as §1

Ruxolitinib + Trametinib = compound: N#CC[C@H](C1CCCC1)n1cc(-c2ncnc3[nH]ccc23)cn1 [Ruxolitinib] + CC(=O)Nc1cccc(-n2c(=O)n(C3CC3)c(=O)c3c(Nc4ccc(I)cc4F)n(C)c(=O)c(C)c32)c1 [Trametinib] (partner 0.02 µM)
Summary of the method: as §1

## UMC-11
Vismodegib + Linsitinib; first compound 0.08 µM
  relative viability: 0.931
Vismodegib + Linsitinib; first compound 0.253 µM
  relative viability: 0.996
Vismodegib + Linsitinib; first compound 0.8 µM
  relative viability: 1.06
Vismodegib + Linsitinib; first compound 2.53 µM
  relative viability: 0.927
Vismodegib + Linsitinib; first compound 8 µM
  relative viability: 1
Ruxolitinib + Lapatinib; first compound 0.08 µM
  relative viability: 1.01
Ruxolitinib + Lapatinib; first compound 0.253 µM
  relative viability: 0.934
Ruxolitinib + Lapatinib; first compound 0.8 µM
  relative viability: 1.23
Ruxolitinib + Lapatinib; first compound 2.53 µM
  relative viability: 0.998
Ruxolitinib + Lapatinib; first compound 8 µM
  relative viability: 1.02
Ruxolitinib + Bortezomib; first compound 0.08 µM
  relative viability: 0.696
Ruxolitinib + Bortezomib; first compound 0.253 µM
  relative viability: 0.983
Ruxolitinib + Bortezomib; first compound 0.8 µM
  relative viability: 0.929
Ruxolitinib + Bortezomib; first compound 2.53 µM
  relative viability: 0.715
Ruxolitinib + Bortezomib; first compound 8 µM
  relative viability: 0.706
Ruxolitinib + Trametinib; first compound 0.08 µM
  relative viability: 0.823
Ruxolitinib + Trametinib; first compound 0.253 µM
  relative viability: 0.703
Ruxolitinib + Trametinib; first compound 0.8 µM
  relative viability: 0.872
Ruxolitinib + Trametinib; first compound 2.53 µM
  relative viability: 1.03
Ruxolitinib + Trametinib; first compound 8 µM
  relative viability: 0.653
